The source of these data is patent US20040248837A1, “Methods of treating pulmonary fibrotic disorders” (priority 2002, published 2004).

In one data set the test system is ITGβ6. The data set can be described thus: ITGβ6 (β6 integrin) gene transcription in lung tissue, RT-PCR. It is filed as in vivo, C57BL/6 mice. The note with it: B6 mice, i.v., 24 hrs; Pam3Cys 25 μg, polyI:C 25 μg, LPS 5 μg, TOG 2 mg, R848 18 μg, ISS 20 μg. As to the method: Twenty μg ISS was injected intravenously (i.v.) into C57BL/6 mice. At 0 hours, 2 hours, 4 hours, 8 hours, 16 hours, and 24 hours after injection, mice were killed and total RNA was isolated from lung. Transcription levels of IGFβ6 (β6 integrin) was analyzed by reverse transcription-polymerase chain reaction (RT-PCR). TNFα, IDO (2,3-indoleaminedioxygenase) and TGFβ1 were used as controls. […] Transcription of the other subunit of ITGαvβ6 (or αvβ6 integrin), i.e., ITGαv, was also analyzed by RT-PCR.
The long-term effect of ISS on gene expression in lung tissue was investigated. Twenty μg ISS was injected i.v. into C57 BL/6 mice. At 0 days, 1 day, 2 days, 3 days, 4 days, and 5 days post injection, mice were killed and total RNA was isolated from lung tissue. Transcription levels were analyzed by RT-PCR. […] The suppression of TGF-β activity was observed indirectly by the induction of MMP-12 (elastase) gene. Under normal conditions, MMP-12 expression is suppressed by TGF-β. […] In contrast, no change in mRNA levels of MMP-9 (gelatinase) was observed.
The kinetics of suppression of gene expression by ISS was analyzed. […] The level of ITGαv mRNA dropped to 20% of the initial levels within 30 minutes after i.v. injection of ISS.
MyD88 is a component of the TLR signaling pathway. It was shown that down-regulation of ITGβ6 gene transcription by ISS in lung tissue is dependent on MyD88. ISS suppressed ITGβ6 gene transcription in normal control mice, but not in MyD88^−/− mice.
Suppression of ITGβ6 gene transcription in lung tissue by a variety of TLR ligands was examined. Six different TLR ligands (Pam3Cys, 25 μg; polyI:C, 25 μg; LPS, 5 μg; TOG, 2 mg; R848, 18 μg; and ISS, 20 μg) were individually injected i.v. into B6 mice. After 24 hrs, mice were sacrificed and total RNA was isolated form lung tissue, and the level of ITGβ6 gene transcription in lung tissue was analyzed by RT-PCR. Each TLR agonist inhibited ITGβ6 gene transcription in lung tissue.

In data set [1] the test system is mice repetitively challenged with OVA. Put plainly: Airway responsiveness to MCh in vivo (Penh, whole body plethysmograph). On the set-up: species or system BALB/c mice. The note with it: pilot experiments. As to the method:
Female BALB/c mice (16 mice/group) (The Jackson Laboratory, Bar Harbor, Me.) were used when they reached 8-10 wk of age. Mice were immunized s.c. on days 0, 7, 14, and 21 with 25 μg of OVA (OVA, grade V; Sigma) adsorbed to 1 mg of alum (Aldrich) in 200 μl normal saline. Intranasal OVA challenges (20 ng/50 μl in PBS) were administered on days 27, 29 and 31 under isoflurane (Vedco, Inc. St Joseph, Mo.) anesthesia. Intranasal OVA challenges were then repeated twice a week for 1, 3, or 6 months (see FIG. 1 for protocol). Age and sex matched control mice were sensitized but not challenged with OVA during the 1, 3, or 6 month study. Mice were sacrificed 24 hours after the final OVA challenge and bronchoalveolar lavage fluid and lungs were analyzed. […]
Airway responsiveness was assessed 24 hrs after the final OVA challenge (after 1, 3, or 6 months of repetitive OVA challenges), using a single chamber whole body plethysmograph obtained from Buxco (Troy, N.Y.), as previously described in this laboratory. […] The enhanced pause (Penh) correlates closely with pulmonary resistance measured by conventional two-chamber plethysmography in ventilated mice. […] The Penh values measured during each 3-min sequence were averaged and are expressed for each MCh concentration as the percentage of baseline Penh values following PBS exposure (Broide et al. supra).

Data set [2] shares this test system. The note with it: previous studies in our laboratory; administered 1 day before OVA challenge; cited from earlier work.
Data set [3] has the same test system. Put plainly: Quantification of airway remodeling (pilot experiments). It is filed as in vivo, BALB/c mice. As to the method:
(§1) Female BALB/c mice (16 mice/group) (The Jackson Laboratory, Bar Harbor, Me.) were used when they reached 8-10 wk of age. Mice were immunized s.c. on days 0, 7, 14, and 21 with 25 μg of OVA (OVA, grade V; Sigma) adsorbed to 1 mg of alum (Aldrich) in 200 μl normal saline. Intranasal OVA challenges (20 ng/50 μl in PBS) were administered on days 27, 29 and 31 under isoflurane (Vedco, Inc. St Joseph, Mo.) anesthesia. Intranasal OVA challenges were then repeated twice a week for 1, 3, or 6 months (see FIG. 1 for protocol). Age and sex matched control mice were sensitized but not challenged with OVA during the 1, 3, or 6 month study. Mice were sacrificed 24 hours after the final OVA challenge and bronchoalveolar lavage fluid and lungs were analyzed.
Different groups of mice (16 mice/group) were administered i.p. endotoxin-free (<1 ng/mg DNA) phosphorothioate ISS-ODN (5′-[…]-3′; SEQ ID NO:01) (Trilink, San Diego, Calif.) (100 μg in 100 μl of sterile, endotoxin-free PBS), M-ODN (5′-[…]-3′; SEQ ID NO:02) which lacks the CpG motif present in ISS, or diluent control starting 1 day before the first intranasal OVA challenge on day 27, and then continuing every other week 1 day before intranasal challenges for 1, 3, or 6 months. […]

Data set [4] has the same test system. The data set can be described thus: BAL eosinophil counts. Type of data set: in vivo, BALB/c mice. The note with it: pilot experiments. As to the method: as §1
Throughout the Examples, therapeutic nucleic acids are referred to as “ISS.” ISS or diluent control was administered intraperitoneally (i.p.) starting 1 day before the first intranasal OVA challenge on day 26, and then continued every other week 1 day before intranasal challenges for 1, 3, or 6 months (see FIG. 1). All animal experimental protocols were approved by the University of California, San Diego Animal Subjects Committees. […]

`Nc1nc2c(sc(=O)n2[C@@H]2O[C@H](CO)[C@@H](O)[C@H]2O)c(=O)[nH]1` [TOG, 7-thia-8-oxo-guanosine]: in the data set with ITGβ6, the “ITGβ6 gene transcription in lung tissue” value is “inhibited”. On to polyI:C, for which the “ITGβ6 gene transcription in lung tissue” value with ITGβ6 was “inhibited”. Still for that read-out and setting: the entry for “tripalmitoyl-S-glyceryl cysteine [Pam3Cys]” is “inhibited”. Take “M-ODN: 5′-TGACTGTGAAGGTTGGAGATGA-3′ (SEQ ID NO:02), which lacks the CpG motif present in ISS (DNA, backbone and methylation of C not given here)”: the “OVA induced airway responsiveness” value in data set [1] is on record as “did not inhibit”. In addition, the “OVA induced airway hyperreactivity” value in data set [2] is “not”. For the same compound, the “features of airway remodeling” value in data set [3] is “did not inhibit”. Also, the “OVA induced eosinophilic inflammation” value in data set [4] is “did not inhibit”.
